Test system: Radical scavenging activity
Assay: Antioxidant activity assessed as DPPH free radical scavenging activity
Format: functional

Structure (SMILES)	EC50 [µg]
O=c1oc2c(O)c(O)cc3c(=O)oc4c(O)c(O)cc1c4c23 [ELLAGIC ACID]	4.8
C[C@@H]1O[C@@H](OC[C@H]2O[C@@H](Oc3c(-c4ccc(O)c(O)c4)oc4cc(O)cc(O)c4c3=O)[C@H](O)[C@@H](O)[C@@H]2O)[C@H](O)[C@H](O)[C@H]1O [RUTIN]	15.5
O=c1c(O)c(-c2ccc(O)c(O)c2)oc2cc(O)c(O)c(O)c12 [QUERCETAGETIN]	10.5
COc1ccc(-c2oc3cc(O)cc(O)c3c(=O)c2O)cc1O [TAMARIXETIN]	> 100
O=C1c2c(O)cc(O)cc2O[C@H](c2ccc(O)cc2)[C@H]1O [DIHYDROKAEMPFEROL]	> 100
COc1cc(C2Oc3cc(O)cc(O)c3C(=O)C2O)ccc1O (centres undefined) [DIHYDROISORHAMNETIN]	> 100
COc1ccc(-c2oc3cc(O)cc(O)c3c(=O)c2O)cc1 [KAEMPFERIDE]	97
O=c1c(O)c(-c2ccc(O)cc2)oc2cc(O)cc(O)c12 [KAEMPFEROL]	14.6
COc1ccc(C2Oc3cc(O)cc(O)c3C(=O)C2O)cc1O (centres undefined) [TAMARAXETIN]	> 100
O=C(O)c1cc(O)c(O)c(O)c1 [GALLIC ACID]	3.8
COc1ccc(C2Oc3cc(O)cc(O)c3C(=O)C2O)cc1 (centres undefined) [DIHYDROKAEMPFERIDE]	> 100
O=c1c(O)c(-c2ccc(O)c(O)c2)oc2c(O[C@@H]3O[C@H](CO)[C@@H](O)[C@H](O)[C@H]3O)c(O)cc(O)c12	25.5
O=c1c(O)c(-c2ccc(O)c(O)c2)oc2cc(O)cc(O)c12 [QUERCETIN]	14.4
O=c1c(O)c(-c2ccc(O)c(O)c2)oc2c(O)c(O)cc(O)c12 [GOSSYPETIN]	5.5
O=C1c2c(O)cc(O)cc2O[C@H](c2ccc(O)c(O)c2)[C@H]1O [(+)-TAXIFOLIN]	24
Cc1c(C)c2c(c(C)c1O)CCC(C)(C(=O)O)O2 (centres undefined) [TROLOX]	12.5
COc1c(O)cc2oc(-c3ccc(O)c(O)c3)c(O)c(=O)c2c1O [PATULETIN]	10.6
COc1cc(-c2oc3cc(O)cc(O)c3c(=O)c2O)ccc1O [ISORHAMNETIN]	26.2
O=C(O)[C@H]1O[C@@H](Oc2c(O)cc(O)c3c(=O)c(O)c(-c4ccc(O)c(O)c4)oc23)[C@H](O)[C@@H](O)[C@@H]1O [HIBIFOLIN]	16
